From a melting point compilation (Tetko et al.; mined from patent text by program, amines drawn as free bases though some values may be those of a salt)

melting point | SMILES
150 °C | CC(C)(C)OC(=O)[C@@H]1CS[C@H](c2cccc(O)c2)N1C(=O)CNC(=O)Nc1cccc(C(=O)O)c1
150 to 155 °C | O=c1[nH]c2ccc(S(=O)CCCl)cc2o1 (centres undefined)
160 to 162 °C | CC(C)(CNc1ccc(C2=NNC(=O)CC2)cc1)NCC(O)COc1cc(Cl)ccc1C#N (centres undefined)
130 to 136 °C | Cc1c(Cc2ccccc2)c(=O)oc2cc(OCC3NOC(=O)N3)cc(OCC3NOC(=O)N3)c12 (centres undefined)
160 to 162 °C | CCCn1c(COC)nc2c(N)nc3ccc(OCCN4CCCCC4)cc3c21
275 °C | Cc1cc(-c2cc(C(F)(F)F)n3ncc(C(=O)Nc4cccc(S(N)(=O)=O)c4)c3n2)ccc1Cl
82 to 87 °C | NC(=O)C(F)(F)C(F)(F)C(=O)C(F)(F)F
162 to 164 °C | Cc1cc(OCC(O)CNC(C)(C)C)ccc1-c1nc(C(F)(F)F)c[nH]1 (centres undefined)
72 to 90 °C | CC(=O)OC1CSC(Oc2cc(-c3cncnc3)cnc2Cl)C(OC(C)=O)C1OC(C)=O (centres undefined)
150 to 152 °C | CCCCOC(=O)NNc1n[nH]c2cc(Cl)ccc12
226 to 228 °C | COc1ccc2[nH]c3c(c2c1)CCC(C(=O)O)C3 (centres undefined)
226 to 228 °C | CC(C)c1cc2c(c3c1C(=O)NS3(=O)=O)OCO2
204 to 206 °C | COc1cc(C(C)C)c(Oc2cnc(N)nc2N)cc1I
68 °C | Cc1c(C=O)cccc1C(=O)c1ccc(Cl)cc1
104 °C | C/C=C/C(=O)N1C(=O)OC(C)(C)[C@H]1c1ccccc1
172 to 174 °C | CCOC(=O)c1cc2n(c1)CN(C(=O)OCC)c1c(OC)cccc1-2
121 °C | Cc1cc(Cl)nc2ccc(Cn3ccnc3)cc12
148 to 150 °C | CC(C)(C)Nc1cc(Cl)nc(N2CCCC2)n1
95.1 °C | CCN(CC)C(=O)OCC1CN(C(=O)c2cc(OC)c(OC)c(OC)c2)CCN1C(=O)c1cc(OC)c(OC)c(OC)c1 (centres undefined)
163 to 164 °C | CCCOc1ncc(C(C)=O)cc1-c1nc2c(CC)n(C3CN(C(C)C)C3)nc2c(=O)[nH]1
155 to 158 °C | CCCn1c(=O)c2[nH]c(C3CCCO3)nc2n(CCC)c1=O (centres undefined)
110 to 113 °C | COc1cc2ncc(C#N)c(Nc3ccc(F)c(Cl)c3)c2cc1NC(=O)C=CCN1C(C)CCC1C (centres undefined)
228 to 230 °C | CCn1cc(C(=O)O)c(=O)c2cc(F)c(N3CCN(C)C(COC)C3)cc21 (centres undefined)
97 °C | CCC1SC(=O)NN=C1c1ccc(OC(F)F)c(OC)c1 (centres undefined)

melting point | SMILES
267 to 268 °C | CC(C)NC(=O)Nc1nc(Cc2c(Cl)cccc2Cl)nc(Nc2ccc(C#N)cc2)n1
158 to 162 °C | CNC(=O)NCCn1c(-c2ccc(CN3CCOCC3)cc2OC)csc1=Nc1ccc(F)c(C)c1
97 to 99 °C | CCCCNC(=O)N(C)c1ncc(-c2ccncc2)cn1
194 °C | N#CCc1ccc(NC(=O)c2ccc(C=O)cc2)cc1
193 to 194 °C | O=C(O)c1ccc(C(=O)N(Cc2ccccc2)S(=O)(=O)c2ccc(Br)cc2)cc1
166 to 168 °C | CC(C)(C)OC(=O)N1C(=O)O[C@@H](c2ccncc2)[C@H]1Cc1ccc(C(F)(F)F)cc1 (racemic)
70 °C | Cc1ccc(OCC=C(Cl)Cl)c(Cl)c1O
136 to 138 °C | CS(=O)CCNC(=O)c1cccc(-c2ccc3c(c2)C(c2cc(Cl)ccc2Cl)CC3)c1 (centres undefined)
164 °C | O=C(O)CNC(=Nc1ccc(C(=O)O)cc1)NCC1CCCCC1
283 to 285 °C | O=C1c2ccccc2-c2c1c(-n1ccnc1)nc1ccc(Br)cc21
127 to 128 °C | COc1cc(COc2nn(-c3ccccc3)cc2CCc2cscn2)ccc1OCc1nc(-c2ccco2)oc1C
110 to 118 °C | CCN(CC)c1ccc(/C=C/C(=O)CC(=O)/C=C/c2ccc3cc[nH]c3c2)cc1
170 °C | CS(=O)(=O)c1ccc(-c2cc(C(=O)c3ccc(Cl)cc3Cl)sc2N2CCOCC2)cc1
205 to 208 °C | CCc1coc2c(-c3ccc(S(C)(=O)=O)cc3)c(-c3ccc(F)cc3)nn12
171 to 172 °C | COc1ccc2[nH]ccc(=O)c2c1OCc1ccccc1
95 to 96 °C | CCSc1ncc(S(N)(=O)=O)s1
72 to 72.5 °C | CCCCSc1nsnc1O
258 to 259 °C | COc1cc(C(=O)O)c(-c2c(C(=O)O)cc(OC)c3c2OCO3)c(OC)c1OC
214 to 215 °C | Cc1cc(NS(=O)(=O)c2cccs2)c2[nH]c(C(=O)NCCSC(c3ccccc3)(c3ccccc3)c3ccccc3)cc2c1
250 to 253 °C | CC1(C)Oc2cc3nonc3cc2C(N2CCC(Br)CC2=O)C1O (centres undefined)
154 to 155 °C | CC(C)(C)OC(=O)N1CCc2c(n(CCOc3ccccc3)c3c(Cl)cc(Cl)cc23)CC1
167 to 168 °C | COc1cc(C(=O)N2Cc3ccc(C(=O)NCc4ccc5c(c4)OCO5)n3Cc3ccccc32)ccc1-c1ccccc1C
227 °C | CN1CCN(c2ccc(Nc3ncc4ccc(-c5ccc(S(C)(=O)=O)cc5)n4n3)cc2F)CC1
195 to 198 °C | NNC(=O)c1cn2ccccc2n1

melting point | SMILES
129 to 133 °C | COc1ccc2c(c1)C(OC)(c1ccccc1)OC21CCN(Cc2ccccc2)CC1 (centres undefined)
214 to 216 °C | O=C(O)c1ccc(N(CC2CC2)c2cc3c4c(c2)CCCC4CCC3)cc1
137 to 142 °C | CCc1nc2c(C)cc(C)nc2n1Cc1ccc(C(c2ccccc2)C(C(=O)O)C(=O)O)cc1 (centres undefined)
188 to 190 °C | CC(=O)N[C@@H]1c2cc(C)ccc2OC(C)(C)[C@H]1O (relative stereo)
74 to 76 °C | Cc1nc2ccsc2c2ccccc12
132 to 133 °C | COc1ccc(C(C)(C)C)cc1C(N)=NO
51 to 54 °C | CCCCCCCCN(SN(C(=O)NC(=O)c1ccccc1[N+](=O)[O-])c1ccc(Oc2ncc(Br)cn2)c(Cl)c1)C(=O)OC
107 to 109 °C | ONCc1ccc(N2CCC3(CC2)OCCO3)cc1
208 to 210 °C | COc1cc(Nc2c(C#N)cnc3ccsc23)c(Cl)cc1Cl
60 to 65 °C | CCOP(=O)(/C=C/c1ccc(C(=O)OC)cc1)OCC
173 to 174 °C | CC(=O)c1cc(CC(=O)O)cc2c1NC(C(F)(F)F)CC2 (centres undefined)
132 to 134 °C | CC(=O)C(Cl)=NNc1ccccc1
297 to 300 °C | NC(=O)C(=O)Nc1nc(-c2cc3ccccc3oc2=O)cs1
183 to 186 °C | Cn1c2ccccc2c(=O)c2c(Cl)cccc21
125 to 126 °C | COc1ccc(C(=O)NCCCCOc2ccc(-n3ccnc3)cc2)cc1
102 to 103 °C | CCOC(=O)/C=C/c1ccc(OCCC2OCCO2)cc1Oc1ncc(C(F)(F)F)cc1Cl
121 to 123 °C | COc1ccc(-c2cnc(C#N)nc2)cc1OC1CCCC1
217 to 219 °C | COC(=O)c1ccc(NC2CCCCC2)cc1C(=O)OC
110 to 112 °C | COC(=O)c1cc(O)ccc1OC
99 to 100 °C | COC(=O)c1cc(C)cc(CNO)c1
183 to 185 °C | CCOc1cc2c(cc1OCC)CCCC(C(=O)N1CCN(C(=O)c3cc(OC)c(OC)c(OC)c3)CC1)=C2
98 to 99 °C | COC(c1ccc(C)cc1)c1ccccc1Br (centres undefined)
173 to 174 °C | NNC(=O)C=Cc1cc2ccccc2o1
113 to 115 °C | COc1ccc(-c2cc(C#N)nnc2-c2ccc(OC)cc2)cc1

melting point | SMILES
85 to 96 °C | CNC(=O)c1ccc(Nc2nc(Nc3cc4c(cc3OC)CCN(Cc3ncco3)CC4)ncc2Cl)c(OC)c1
149 to 151 °C | OC1CCCCC1n1c(NC2CC2)nc2cc(Cl)c(Cl)cc21 (centres undefined)
275 to 277 °C | c1ccc(CN(Cc2ccccc2)c2cccc3c2ncc2nc4n(c23)CCC4)cc1
97.5 to 99 °C | O=[N+]([O-])c1ccc(NCc2ccccc2)c(F)c1
91 to 93 °C | CCc1ccc(Nc2c(C(=O)NOC(CO)CO)ccc(F)c2F)c(F)c1
196 °C | CS(=O)(=O)c1ccc(-n2nc(C(F)(F)F)cc2-c2ccc(-c3ccco3)cc2)cc1
> 260 °C | Nc1nc(O)c2cc(C#Cc3ccc(C(=O)O)cc3)cnc2n1
> 280 °C | CC(C)(C)NCCCS(=O)(=O)O
141 to 142 °C | OCc1ccccc1NCc1cc2c(cc1O)CCCO2
149 to 151 °C | CCc1cn(C2CC(O)C(CSCc3ccccc3)O2)c(=O)[nH]c1=O (centres undefined)
258 to 262 °C | Nc1nc(N)c2c(CCc3ccc(C(=O)N[C@@H](CCC(=O)O)C(=O)O)cc3)cnc-2[nH]1
204 to 206 °C | CNC(=O)COc1nc(N)nc(-c2ccccc2)c1-c1ccc(=O)n(C(C)C)n1
75 to 78 °C | Fc1cc(Br)c2ncccc2c1
128 °C | NS(=O)(=O)c1ccc(-c2cc(-c3c[nH]nc3-c3ccccn3)ccc2F)cc1
190 to 192 °C | Cc1cccc([N+](=O)[O-])c1C=NO
215 to 217 °C | O=C(O)C(=O)CC(=O)c1cc(C(=O)CC(=O)C(=O)O)n(Cc2ccc(F)cc2)n1
135 to 137 °C | COc1ccc(-c2cc(=O)n(CCC(=O)NCc3ccccc3)nc2-c2ccc(OC)cc2)cc1
139 to 158 °C | CCN([C@H]1CC[C@H](c2ccc3[nH]c(=O)oc3c2)CC1)[C@H](C)CCc1ccccc1
263 to 267 °C | COc1ccc2c(c1)c(-c1cc3nccnc3[nH]1)cn2CC(=O)N1CCOCC1
118 °C | COC(=O)NNC(=O)CCc1ccccc1
171 to 174 °C | C=CCOc1cc(=O)n(-c2ccccc2)c2ncccc12

SMILES | melting point
CC(C)(C)NC(=O)c1nn(-c2c(F)cc(F)cc2F)c2c1C1CCC2C1 (centres undefined) | 142 to 146 °C
COc1ccc2c(c1)C13CCN(C#N)C(C2)C1(OC)CCC(=O)C3 (centres undefined) | 172 to 176 °C
O=C1Nc2cc(CN3CC=C(c4ccccc4)CC3)ccc2OC1F (centres undefined) | 239 °C
CC(C)n1cc(C(=O)Nc2nccs2)c2ccc(O)cc21 | 239 to 241 °C
Cc1cccc(NC(=O)NC2N=C(c3ccccc3F)c3ccccc3N(Cc3csc4ccccc34)C2=O)c1 (racemic) | 214 to 216 °C
CCCCN(c1nc(NCCN)nc(N(CCCC)C2CC(C)(C)NC(C)(C)C2)n1)C1CC(C)(C)NC(C)(C)C1 | 140 °C
